We go through two molecules from PMC6348443 (Journal of Medicinal Chemistry, 2018).

Test [1] addresses T1, MOR (Rattus norvegicus, UniProt P33535).
T1 construct: Membranes were prepared from Sprague-Dawley rat brains or guinea-pig brains according to the described procedures; tissue Labortierkunde und Laborgenetik, Medizinische Universität Wien; host or cells: Sprague-Dawley rat brain without cerebella
Put plainly: competition radioligand binding, rat brain membranes, [3H]DAMGO. To be noted: for Ki: rat brain membranes, read-out: opioid receptor binding Ki MOR.

The target in test [2] is T2, MOR (Homo sapiens, UniProt P35372).
T2 construct: host or cells: CHO (CHO-hMOR)
T2 sequence (P35372 whole entry): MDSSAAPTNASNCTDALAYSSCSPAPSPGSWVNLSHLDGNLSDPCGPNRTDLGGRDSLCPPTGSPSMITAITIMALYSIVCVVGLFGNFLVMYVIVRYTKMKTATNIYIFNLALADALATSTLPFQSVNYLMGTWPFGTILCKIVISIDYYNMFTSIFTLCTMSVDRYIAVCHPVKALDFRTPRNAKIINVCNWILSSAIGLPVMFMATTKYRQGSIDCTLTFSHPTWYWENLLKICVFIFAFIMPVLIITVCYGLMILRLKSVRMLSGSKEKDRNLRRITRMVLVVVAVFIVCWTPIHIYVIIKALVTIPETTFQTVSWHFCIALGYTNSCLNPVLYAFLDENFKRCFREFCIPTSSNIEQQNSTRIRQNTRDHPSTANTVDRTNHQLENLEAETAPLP
Put plainly: [35S]GTPγS binding assay, CHO-hMOR membranes. It is filed as biochemical. To be noted: for EC50: [35S]GTPγS, CHO human MOR membranes, read-out: MOR EC50; for Emax: relative to reference full agonist DAMGO, read-out: MOR % stim. A general note: GTPγS resists hydrolysis and so accumulates on activated G proteins.

Another test deals with T3, KOR (Homo sapiens, UniProt P41145).
T3 construct: host or cells: CHO (CHO-hKOR)
T3 sequence (P41145 whole entry): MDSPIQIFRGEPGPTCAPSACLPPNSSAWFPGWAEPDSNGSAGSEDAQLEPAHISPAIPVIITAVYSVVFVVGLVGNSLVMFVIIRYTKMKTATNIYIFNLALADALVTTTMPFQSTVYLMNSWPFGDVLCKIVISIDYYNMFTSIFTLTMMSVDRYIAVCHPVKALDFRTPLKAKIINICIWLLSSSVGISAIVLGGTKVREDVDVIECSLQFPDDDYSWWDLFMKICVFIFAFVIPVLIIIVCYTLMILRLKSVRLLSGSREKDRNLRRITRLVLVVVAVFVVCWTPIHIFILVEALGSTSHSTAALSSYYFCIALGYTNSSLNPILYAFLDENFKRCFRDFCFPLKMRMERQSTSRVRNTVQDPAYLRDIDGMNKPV
Put plainly: [35S]GTPγS binding assay, CHO-hKOR membranes. It is filed as biochemical. The conditions noted are these: for EC50: [35S]GTPγS, CHO human KOR membranes, read-out: KOR EC50; for Emax: relative to reference full agonist U69,593, read-out: KOR % stim.

The next test addresses T4, DOR (Homo sapiens, UniProt P41143).
T4 construct: host or cells: CHO (CHO-hDOR)
Put plainly: competition radioligand binding, CHO cell membranes expressing human DOR, [3H]diprenorphine.

In test [3] the test system is peripheral opioid receptors. The test can be described thus: antagonism by naloxone methiodide in the acetic acid-induced writhing assay. It is filed as in vivo, mouse. The conditions noted are these: sc co-administration with naloxone methiodide 1 mg/kg; agonist 50 or 200 μg/kg sc; 30 min. From the text:
To determine whether targeted 6-amino acid and 6-dipeptide analogues inhibit writhing behavior in mice through peripheral opioid receptors activation, we used naloxone methiodide.[27]
Values are shown as mean of writhes ± SEM (n = 6–7 mice per group). ***P < 0.001 vs control group; ^#P < 0.05, ^##P < 0.01 and ^###P < 0.001 vs agonist treated group, ANOVA with Tukey’s post hoc test.
Writhing was induced in male CD1 mice by ip injection of a 0.6% acetic acid aqueous solution as described previously.[48],[62] Groups of mice were administered sc different doses of test compound or saline (control), and 5 min prior to testing (25 min after drug or saline), each animal received an ip injection of acetic acid solution. Each mouse was placed in individual transparent Plexiglas chambers, and the number of writhes was counted during a 10 min observation period. […] For the antagonism study, naloxone methiodide was sc co-administered with the respective opioid agonist, and writhing was assessed as described above.
A general note: In writhing tests, fewer writhes than in controls are read as antinociception.

Structures can show the parent of a compound that is named as a salt. Where two headings read alike, the source gives them in different places.

T1 sequence (P33535 whole entry): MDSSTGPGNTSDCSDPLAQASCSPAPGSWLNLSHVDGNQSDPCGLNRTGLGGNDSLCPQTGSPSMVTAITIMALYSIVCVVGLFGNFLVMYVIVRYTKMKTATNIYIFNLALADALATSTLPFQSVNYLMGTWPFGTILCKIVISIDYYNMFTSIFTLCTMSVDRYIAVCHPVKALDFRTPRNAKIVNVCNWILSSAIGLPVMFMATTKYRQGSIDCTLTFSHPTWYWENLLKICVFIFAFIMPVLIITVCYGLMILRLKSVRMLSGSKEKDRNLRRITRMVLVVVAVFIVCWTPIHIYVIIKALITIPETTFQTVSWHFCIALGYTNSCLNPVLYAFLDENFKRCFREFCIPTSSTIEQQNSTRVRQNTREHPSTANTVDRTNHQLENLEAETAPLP
T4 sequence (P41143 whole entry): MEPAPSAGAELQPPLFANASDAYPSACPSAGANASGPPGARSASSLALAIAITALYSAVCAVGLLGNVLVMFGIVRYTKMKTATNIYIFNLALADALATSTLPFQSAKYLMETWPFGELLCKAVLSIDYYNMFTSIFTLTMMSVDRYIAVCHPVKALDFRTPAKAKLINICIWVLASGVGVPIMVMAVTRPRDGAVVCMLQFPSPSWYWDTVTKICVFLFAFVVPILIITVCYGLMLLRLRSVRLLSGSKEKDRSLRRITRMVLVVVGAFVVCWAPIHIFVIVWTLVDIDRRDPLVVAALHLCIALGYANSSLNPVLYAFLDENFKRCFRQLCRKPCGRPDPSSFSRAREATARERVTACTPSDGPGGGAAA

Broadly, the Ki is the dissociation constant of the complex between target and ligand, obtained from inhibition or displacement. The term EC50 denotes the midpoint of the concentration-response curve. For the molecule `CC[C@H](N[C@H]1CC[C@@]2(OC)[C@H]3Cc4ccc(O)c5c4[C@@]2(CCN3C)[C@H]1O5)C(=O)O` [Compound 19a, (2S)-2-[(4,5α-Epoxy-3-hydroxy-14β-methoxy-17-methylmorphinan-6α-yl)amino]-2-ethylacetic Acid Dihydrochloride], the “Ki ratio MOR/DOR/KOR” value on MOR [1] (from Ki in rat (MOR, DOR) and guinea-pig (KOR) brain membranes) is recorded as 1/49/189. For the same molecule, the DOR/MOR selectivity ratio on MOR [1] (from Ki in rat brain, for 1 from Ki of ref 44) is 49. Further, the inhibition constant (Ki) at MOR [1] came out at 0.76 ± 0.19 nM; on DOR, 38 ± 15.4 nM. Moreover, the EC50 at MOR [2] stood at 5.12 ± 0.09 nM; on KOR, 942 ± 235 nM. Moreover, the Emax on MOR [2] was 88 ± 2%; at KOR, 61 ± 2%. Besides, in test [3], the “effect of naloxone methiodide on antinociceptive effect” value was “reversed”.

As to `CO[C@@]12CC[C@H](N[C@H](C(=O)N[C@@H](Cc3ccc(O)cc3)C(=O)O)C(C)C)[C@@H]3Oc4c(O)ccc5c4[C@@]31CCN(C)[C@@H]2C5` [Compound 22a, (2S)-2-[[(4,5α-Epoxy-3-hydroxy-14β-methoxy-17-methylmorphinan-6α-yl)amino]-(2S)-3-methylbutyrylamino]-3-(4-hydroxyphenyl)propionic Acid], the Ki at MOR [1] stood at 0.82 ± 0.13 nM; on DOR (CHO cell membranes expressing human DOR, read-out: Ki DOR), 1.46 ± 0.59 nM. The “increase in MOR binding affinity vs comparator” value at MOR [1] (rat brain, 17b vs 4b, 16a/b vs 7a/b, 22a/b vs 7a, 7b and 9b, 14a vs 14b) is given as 4 to 7 times. Also, the figures for the concentration giving a half-maximal response (EC50) on MOR [2] and on KOR were 0.89 ± 0.04 nM and 330 ± 179 nM, respectively. Also, on MOR [2] (full agonist ≥85% of the response to DAMGO), the “functional profile at MOR (full/partial agonist)” value is listed as “partial agonists”. Moreover, the Emax is around 80% on MOR [2] and 50 ± 2% at KOR. In test [3], the “effect of naloxone methiodide on antinociceptive effect” value is on record as “reversed”.
